In PubChem BioAssay (NCI) one finds GI50 and TGI data, which are given here for eight compounds.

Where “and” joins values, the source holds several entries; their conditions need not be identical. Equal values may be shown once.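 Where inhibition never reached the appropriate level, the endpoint shown equals the highest concentration tested. Otherwise, values were interpolated linearly from a five-concentration, 48-hour dose response in 96-well plates. Here, GI50 denotes the concentration required for 50% inhibition of growth. TGI: total growth inhibition.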

Among the test systems are UACC-257 melanoma; OVCAR-5 ovarian; RXF 393 renal; SF-539 CNS; A549 NSCLC; MDA-MB-435; IGROV1 ovarian; HS 578T breast; HCT-15 colon; ACHN renal.
Experiment in all cases: NCI tumour cell line growth inhibition, 48 h

Take `N#Cc1ccc(NC(=O)Nc2ccc(Oc3ccc(NC(=O)Nc4ccc(C#N)cc4)cc3)cc2)cc1`: the GI50 was 29.1 µM in the assay with UACC-257 melanoma; 26.1 µM in the assay with OVCAR-5 ovarian; 15.3 µM in the assay with RXF 393 renal; 17.6 µM with SF-539 CNS; 17.8 µM with A549 NSCLC; 17.1 µM in the assay with MDA-MB-435. Further, the GI50 in the assay with IGROV1 ovarian is 30.4 µM; in the assay with HS 578T breast, 7.49 µM; in the assay on HCT-15 colon, 18 µM; with ACHN renal, 18.8 µM. The TGI is > 100 µM with UACC-257 melanoma; > 100 µM in the assay on OVCAR-5 ovarian; > 100 µM in the assay on RXF 393 renal; 59.4 µM with SF-539 CNS; > 100 µM in the assay with A549 NSCLC; > 100 µM with MDA-MB-435. The TGI with IGROV1 ovarian, in the assay on HS 578T breast, in the assay with HCT-15 colon and with ACHN renal was > 100 µM each time.

On to `C=C1C(=O)O[C@H]2[C@H]1CC/C(Cn1cc(-c3ccc(OC)cc3)nn1)=C\CC[C@@]1(C)O[C@@H]21`, for which the GI50 with UACC-257 melanoma was 1.78 µM; in the assay on OVCAR-5 ovarian, 1.71 µM; with RXF 393 renal, 0.703 µM; with SF-539 CNS, 0.346 µM; in the assay with A549 NSCLC, 10.9 µM; in the assay with MDA-MB-435, 1.14 µM. Besides, the GI50 is 1.35 µM in the assay with IGROV1 ovarian, 7.42 µM in the assay on HS 578T breast, 0.338 µM in the assay on HCT-15 colon and 0.293 µM in the assay on ACHN renal. Also, the TGI was 3.85 µM in the assay with UACC-257 melanoma; 3.66 µM in the assay with OVCAR-5 ovarian; 2.02 µM in the assay on RXF 393 renal; 1.49 µM in the assay on SF-539 CNS; 24.4 µM with A549 NSCLC; 3.24 µM in the assay on MDA-MB-435. Further, the TGI was found to be 3.27 µM in the assay on IGROV1 ovarian, 36.9 µM in the assay on HS 578T breast, 1.38 µM in the assay on HCT-15 colon and 1.12 µM in the assay on ACHN renal.

Consider `COc1ccc(NC2=CC(=O)C(=O)c3ccccc32)nn1`, for which the TGI in the assay on UACC-257 melanoma turned out to be 3.24 µM; in the assay on OVCAR-5 ovarian it was 3.45 µM; with RXF 393 renal it was 3.78 µM; in the assay with SF-539 CNS it was 2.2 µM; in the assay on A549 NSCLC, 31.2 µM; in the assay on MDA-MB-435, 1.32 µM. Further, the TGI in the assay with IGROV1 ovarian was 11.1 µM; in the assay on HS 578T breast it was > 100 µM; with HCT-15 colon, 2.51 µM; in the assay on ACHN renal, 5.1 µM.

Turning to `CCN(CC)c1ccc(/C=C/c2ccc3cc(C)ccc3[n+]2CC)cc1`, the GI50 in the assay with UACC-257 melanoma was 0.116 µM; in the assay with OVCAR-5 ovarian it was 0.309 µM; in the assay with RXF 393 renal it was 0.216 µM; in the assay on SF-539 CNS, 0.172 µM; with A549 NSCLC it was 0.119 µM; with MDA-MB-435 it was 0.113 µM. Also, the GI50 is 0.201 µM in the assay on IGROV1 ovarian, 1.01 µM with HS 578T breast, 1.32 µM in the assay on HCT-15 colon and 0.336 µM with ACHN renal. In addition, the TGI amounted to 1.28 µM with UACC-257 melanoma; 16.8 µM in the assay with OVCAR-5 ovarian; 3.41 µM in the assay on RXF 393 renal; 10.9 µM in the assay with SF-539 CNS; 14.6 µM with A549 NSCLC; 1.28 µM in the assay with MDA-MB-435. In addition, the TGI in the assay on IGROV1 ovarian was 18.1 µM; with HS 578T breast, 69 µM; in the assay with HCT-15 colon it was 12.9 µM; in the assay on ACHN renal, 5.67 µM.

Regarding `C[C@]12CC[C@H]3[C@@H](CC=C4C[C@@H](O)CC[C@@]43C)[C@@H]1CC[C@@H]2N(CCO)CCO`, the TGI in the assay with UACC-257 melanoma, with OVCAR-5 ovarian, in the assay with RXF 393 renal, in the assay with SF-539 CNS, with A549 NSCLC and in the assay on MDA-MB-435 was > 100 µM throughout. Besides, the TGI in the assay on IGROV1 ovarian, with HS 578T breast, with HCT-15 colon and in the assay with ACHN renal was > 100 µM each time.

With `CCN(CC)CCOc1ccc(/C(=C(\Cl)c2ccccc2)c2ccccc2)cc1`, the GI50 is 0.989 µM and 1.97 µM in the assay on UACC-257 melanoma; 3.42 µM and 3.33 µM with OVCAR-5 ovarian; 0.955 µM and 1.49 µM in the assay with RXF 393 renal; 1.77 µM and 1.87 µM with SF-539 CNS; 2.92 µM and 4.32 µM with A549 NSCLC; 1.54 µM and 2.2 µM with MDA-MB-435. For the same compound, the GI50 with IGROV1 ovarian is 4.83 µM and 3.04 µM; in the assay with HS 578T breast it was 5.25 µM and 3.15 µM; in the assay on HCT-15 colon it was 1.47 µM and 1.72 µM; in the assay on ACHN renal, 6.4 µM and 4.27 µM. The TGI with UACC-257 melanoma was 2.09 µM and 4.04 µM; in the assay on OVCAR-5 ovarian, 9.95 µM and 15.2 µM; in the assay on RXF 393 renal, 2.46 µM and 3.03 µM; in the assay with SF-539 CNS it was 5.49 µM and 4.29 µM; in the assay on A549 NSCLC it was 9.57 µM and 15.3 µM; in the assay with MDA-MB-435, 5.78 µM and 7.08 µM. The TGI in the assay with IGROV1 ovarian was 12.8 µM and 14.1 µM; with HS 578T breast it was 19.4 µM and 17.7 µM; in the assay with HCT-15 colon, 5.01 µM and 7.38 µM; with ACHN renal, 13.1 µM and 16.5 µM.

`Oc1c(CN2CCC(N3CCCCC3)CC2)cc(Cc2cc(CN3CCC(N4CCCCC4)CC3)c(O)c3ncccc23)c2cccnc12`: the GI50 in the assay on UACC-257 melanoma was 2.08 µM; in the assay with OVCAR-5 ovarian, 2.74 µM; in the assay on RXF 393 renal, 1.94 µM; with A549 NSCLC, 1.61 µM; in the assay on MDA-MB-435 it was 1.77 µM; in the assay with IGROV1 ovarian it was 1.16 µM. Also, the GI50 with HS 578T breast was 4.67 µM; in the assay with HCT-15 colon it was 0.797 µM; in the assay with ACHN renal it was 1.4 µM. Also, the TGI in the assay on UACC-257 melanoma was found to be 4.31 µM; with OVCAR-5 ovarian, 20.3 µM; in the assay with RXF 393 renal it was 10.2 µM; in the assay on A549 NSCLC, 5.75 µM; in the assay on MDA-MB-435, 6.41 µM; with IGROV1 ovarian, 17.3 µM. Further, the TGI in the assay on HS 578T breast was 28.7 µM; with HCT-15 colon it was 14.6 µM; with ACHN renal it was 11.7 µM.

For `Nc1cc(N)c2nc(-c3ccccc3)c(Nc3ccc(Cl)c(Cl)c3)nc2c1`, the GI50 was 11.4 µM in the assay on UACC-257 melanoma; 28 µM with OVCAR-5 ovarian; 6.23 µM in the assay on RXF 393 renal; 17.1 µM in the assay with SF-539 CNS; 10.8 µM with A549 NSCLC; 2.16 µM in the assay with MDA-MB-435. The GI50 with IGROV1 ovarian was 4.92 µM; in the assay with HS 578T breast it was 18.9 µM; in the assay with HCT-15 colon it was 21.2 µM. Also, the TGI worked out at 28.2 µM with UACC-257 melanoma; 48.7 µM with OVCAR-5 ovarian; 31.2 µM in the assay on RXF 393 renal; 35.3 µM with SF-539 CNS; 34.7 µM in the assay with A549 NSCLC; 4.59 µM in the assay with MDA-MB-435. The TGI was 21.1 µM in the assay with IGROV1 ovarian, 51.7 µM in the assay with HS 578T breast and > 100 µM with HCT-15 colon.
